# Measurements from article PMC8474606 (Brain, Behavior, & Immunity - Health, 2020).
# Experiments:
# H+/OC antiporter = experiment: DPHM uptake in BMECs after inflammatory cytokine treatment; details: cytokine 0.1–30 ng/ml, 24 h; DPHM 30 μM, 30 s
# Brain uptake index = type: in vivo, rat; details: data not shown
"Brain uptake of reference compound, control vs LPS rats (Brain uptake index)",Compound,Effect on DPHM uptake into BMECs (H+/OC antiporter)
,IL-1β: recombinant human interleukin-1β,little effect
similar,O=C(O)Cc1ccccc1Nc1c(Cl)cccc1Cl [diclofenac],
,TNF-α,little effect
